Experimental data published in ChEMBL document CHEMBL4507305, “Data for DCP probe TP-024” (2021).
Activity calls are given as the source filed them. No cut-off for these calls is given here.

Key:
[1] = test system: Phosphatidylinositol 4,5-bisphosphate 3-kinase catalytic subunit alpha isoform (Homo sapiens), P42336 [H1047Y]; conditions: Compound concentration 1000.0 nM
[2] = target: Cyclin-dependent kinase 4 (Homo sapiens) (UniProt P11802); conditions: Compound concentration 1000.0 nM
[3] = target: Dual specificity mitogen-activated protein kinase kinase 1 (Homo sapiens) (UniProt Q02750); conditions: Compound concentration 1000.0 nM
[4] = target: TRAF2 and NCK-interacting protein kinase (Homo sapiens) (UniProt Q9UKE5); conditions: Compound concentration 1000.0 nM
[5] = target: Serine/threonine-protein kinase N1 (Homo sapiens) (UniProt Q16512); conditions: Compound concentration 1000.0 nM
Serine/threonine-protein kinase N1 (Homo sapiens), sequence (Q16512 2-942 limits assumed): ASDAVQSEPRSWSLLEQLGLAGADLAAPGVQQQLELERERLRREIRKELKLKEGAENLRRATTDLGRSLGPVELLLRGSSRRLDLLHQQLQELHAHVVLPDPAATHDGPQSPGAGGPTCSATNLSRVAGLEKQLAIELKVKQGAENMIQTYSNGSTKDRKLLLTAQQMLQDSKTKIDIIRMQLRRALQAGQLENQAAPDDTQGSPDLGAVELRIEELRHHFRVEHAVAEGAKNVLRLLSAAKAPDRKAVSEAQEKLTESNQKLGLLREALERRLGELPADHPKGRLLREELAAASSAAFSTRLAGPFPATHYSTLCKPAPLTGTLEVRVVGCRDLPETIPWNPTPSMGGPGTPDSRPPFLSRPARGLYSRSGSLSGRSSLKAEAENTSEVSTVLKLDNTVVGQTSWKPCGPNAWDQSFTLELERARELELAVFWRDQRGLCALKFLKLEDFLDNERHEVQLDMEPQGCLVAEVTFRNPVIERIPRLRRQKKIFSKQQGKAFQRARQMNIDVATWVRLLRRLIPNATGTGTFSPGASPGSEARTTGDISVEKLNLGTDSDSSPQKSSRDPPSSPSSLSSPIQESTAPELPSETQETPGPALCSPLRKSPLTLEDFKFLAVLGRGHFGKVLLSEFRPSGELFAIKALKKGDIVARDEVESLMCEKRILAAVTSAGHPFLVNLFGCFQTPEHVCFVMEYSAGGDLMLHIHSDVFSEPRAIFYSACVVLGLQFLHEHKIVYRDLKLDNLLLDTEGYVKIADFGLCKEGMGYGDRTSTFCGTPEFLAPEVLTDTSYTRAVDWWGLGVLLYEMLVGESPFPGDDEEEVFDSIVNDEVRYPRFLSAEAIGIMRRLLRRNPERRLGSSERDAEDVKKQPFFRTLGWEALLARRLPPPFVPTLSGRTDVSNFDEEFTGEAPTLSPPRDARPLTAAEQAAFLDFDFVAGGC

[6] = target: TGF-beta receptor type-1 (Homo sapiens) (UniProt P36897); conditions: Compound concentration 1000.0 nM
TGF-beta receptor type-1 (Homo sapiens), sequence (P36897 whole entry, canonical isoform): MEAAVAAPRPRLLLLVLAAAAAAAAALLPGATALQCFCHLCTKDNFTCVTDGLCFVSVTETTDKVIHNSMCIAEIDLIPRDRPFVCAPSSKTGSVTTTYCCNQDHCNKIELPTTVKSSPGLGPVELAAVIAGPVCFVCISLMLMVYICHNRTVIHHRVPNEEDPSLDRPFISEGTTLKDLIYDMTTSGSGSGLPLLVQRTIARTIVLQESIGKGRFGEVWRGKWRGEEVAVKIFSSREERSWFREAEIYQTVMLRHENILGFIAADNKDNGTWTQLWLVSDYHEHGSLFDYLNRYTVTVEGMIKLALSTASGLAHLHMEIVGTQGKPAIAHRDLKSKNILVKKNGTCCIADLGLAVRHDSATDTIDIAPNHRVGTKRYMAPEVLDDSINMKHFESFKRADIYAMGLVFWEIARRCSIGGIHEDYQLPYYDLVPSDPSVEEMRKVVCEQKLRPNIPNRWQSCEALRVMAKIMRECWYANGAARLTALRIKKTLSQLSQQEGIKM

[7] = test system: Phosphatidylinositol 4,5-bisphosphate 3-kinase catalytic subunit alpha isoform (Homo sapiens), P42336 [Q546K]; conditions: Compound concentration 1000.0 nM
Phosphatidylinositol 4,5-bisphosphate 3-kinase catalytic subunit alpha isoform (Homo sapiens), P42336 [Q546K], sequence (P42336 whole entry Q546K, canonical isoform): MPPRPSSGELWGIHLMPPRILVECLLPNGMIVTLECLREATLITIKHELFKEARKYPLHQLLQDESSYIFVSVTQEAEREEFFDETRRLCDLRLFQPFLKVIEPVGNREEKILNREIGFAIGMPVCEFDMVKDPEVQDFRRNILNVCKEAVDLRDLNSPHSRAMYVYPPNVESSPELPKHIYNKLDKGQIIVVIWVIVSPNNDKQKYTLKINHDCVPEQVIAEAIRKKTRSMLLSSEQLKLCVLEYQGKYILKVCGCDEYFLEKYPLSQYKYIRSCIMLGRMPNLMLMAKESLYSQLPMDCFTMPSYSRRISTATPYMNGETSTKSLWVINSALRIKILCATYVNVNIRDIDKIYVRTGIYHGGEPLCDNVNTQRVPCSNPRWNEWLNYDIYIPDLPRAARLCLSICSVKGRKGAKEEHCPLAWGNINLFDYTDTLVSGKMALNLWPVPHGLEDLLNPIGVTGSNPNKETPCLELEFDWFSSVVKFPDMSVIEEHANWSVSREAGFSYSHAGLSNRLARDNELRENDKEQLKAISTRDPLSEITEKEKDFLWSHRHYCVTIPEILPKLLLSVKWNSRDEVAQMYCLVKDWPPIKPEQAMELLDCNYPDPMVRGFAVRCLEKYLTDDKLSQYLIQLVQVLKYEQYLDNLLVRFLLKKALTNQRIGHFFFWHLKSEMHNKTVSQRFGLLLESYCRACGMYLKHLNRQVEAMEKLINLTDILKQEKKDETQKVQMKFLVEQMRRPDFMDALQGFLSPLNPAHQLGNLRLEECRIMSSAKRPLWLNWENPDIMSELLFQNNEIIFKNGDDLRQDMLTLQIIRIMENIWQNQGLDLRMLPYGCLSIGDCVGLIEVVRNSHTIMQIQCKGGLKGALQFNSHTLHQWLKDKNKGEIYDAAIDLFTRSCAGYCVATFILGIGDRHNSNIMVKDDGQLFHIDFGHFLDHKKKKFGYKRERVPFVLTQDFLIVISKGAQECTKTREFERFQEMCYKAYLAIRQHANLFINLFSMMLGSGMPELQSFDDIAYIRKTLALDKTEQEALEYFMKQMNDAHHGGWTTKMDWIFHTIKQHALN

[8] = target: Serine/threonine-protein kinase DCLK1 (Homo sapiens) (UniProt O15075); conditions: Compound concentration 1000.0 nM
Serine/threonine-protein kinase DCLK1 (Homo sapiens), sequence (O15075 whole entry): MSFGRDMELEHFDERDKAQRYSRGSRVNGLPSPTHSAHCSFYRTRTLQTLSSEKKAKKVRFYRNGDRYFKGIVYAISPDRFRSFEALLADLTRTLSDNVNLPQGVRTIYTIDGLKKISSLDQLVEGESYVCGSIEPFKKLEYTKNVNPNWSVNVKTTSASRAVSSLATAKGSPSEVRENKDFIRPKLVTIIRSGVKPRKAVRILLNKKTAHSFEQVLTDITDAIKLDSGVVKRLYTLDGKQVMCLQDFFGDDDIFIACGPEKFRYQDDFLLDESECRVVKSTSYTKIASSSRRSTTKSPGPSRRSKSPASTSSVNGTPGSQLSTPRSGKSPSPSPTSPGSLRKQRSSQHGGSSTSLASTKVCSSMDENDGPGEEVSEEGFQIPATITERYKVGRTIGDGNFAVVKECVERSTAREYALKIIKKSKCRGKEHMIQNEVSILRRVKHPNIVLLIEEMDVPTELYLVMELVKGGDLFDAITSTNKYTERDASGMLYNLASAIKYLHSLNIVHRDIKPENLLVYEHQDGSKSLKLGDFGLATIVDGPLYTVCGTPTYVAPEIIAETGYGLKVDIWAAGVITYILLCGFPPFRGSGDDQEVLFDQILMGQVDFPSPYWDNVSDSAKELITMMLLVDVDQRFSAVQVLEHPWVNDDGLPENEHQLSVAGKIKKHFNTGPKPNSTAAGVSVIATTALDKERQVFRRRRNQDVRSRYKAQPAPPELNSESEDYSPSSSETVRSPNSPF

[9] = target: Tyrosine-protein kinase ITK/TSK (Homo sapiens) (UniProt Q08881); conditions: Compound concentration 1000.0 nM
[10] = target: Homeodomain-interacting protein kinase 3 (Homo sapiens) (UniProt Q9H422); conditions: Compound concentration 1000.0 nM
[11] = target: Cyclin-dependent kinase 4 (Homo sapiens) (UniProt P11802); conditions: Compound concentration 1000.0 nM; remark: listed apart in the source
[12] = test system: Tyrosine-protein kinase ABL1 (Homo sapiens), P00519 [F317L]; conditions: Compound concentration 1000.0 nM
[13] = target: Cyclin-dependent kinase 17 (Homo sapiens) (UniProt Q00537); conditions: Compound concentration 1000.0 nM
[14] = target: G-protein coupled receptor 52 (Homo sapiens, UniProt Q9Y2T5); assay: CHO-based cAMP assay (human); assay type: functional
[15] = target: Serine/threonine-protein kinase N2 (Homo sapiens) (UniProt Q16513); conditions: Compound concentration 1000.0 nM
[16] = target: Casein kinase I isoform gamma-3 (Homo sapiens) (UniProt Q9Y6M4); conditions: Compound concentration 1000.0 nM
Casein kinase I isoform gamma-3 (Homo sapiens), sequence (Q9Y6M4 whole entry, looked up, canonical isoform): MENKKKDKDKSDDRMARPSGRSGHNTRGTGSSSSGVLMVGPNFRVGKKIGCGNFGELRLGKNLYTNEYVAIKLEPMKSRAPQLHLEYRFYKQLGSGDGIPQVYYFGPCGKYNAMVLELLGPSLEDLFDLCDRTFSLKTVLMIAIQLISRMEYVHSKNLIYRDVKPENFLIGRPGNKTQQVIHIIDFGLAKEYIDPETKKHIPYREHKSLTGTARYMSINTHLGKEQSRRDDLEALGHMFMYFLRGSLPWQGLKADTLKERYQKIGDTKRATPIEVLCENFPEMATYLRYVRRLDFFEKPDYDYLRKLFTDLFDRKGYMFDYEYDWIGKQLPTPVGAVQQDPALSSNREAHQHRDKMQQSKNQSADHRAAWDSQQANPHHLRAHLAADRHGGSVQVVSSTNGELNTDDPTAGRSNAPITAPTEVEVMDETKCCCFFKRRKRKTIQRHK

[17] = test system: Tyrosine-protein kinase ABL1 (Homo sapiens), P00519 [Q252H]; conditions: Compound concentration 1000.0 nM
[18] = target: Bone morphogenetic protein receptor type-1B (Homo sapiens) (UniProt O00238); conditions: Compound concentration 1000.0 nM
Bone morphogenetic protein receptor type-1B (Homo sapiens), sequence (O00238 whole entry): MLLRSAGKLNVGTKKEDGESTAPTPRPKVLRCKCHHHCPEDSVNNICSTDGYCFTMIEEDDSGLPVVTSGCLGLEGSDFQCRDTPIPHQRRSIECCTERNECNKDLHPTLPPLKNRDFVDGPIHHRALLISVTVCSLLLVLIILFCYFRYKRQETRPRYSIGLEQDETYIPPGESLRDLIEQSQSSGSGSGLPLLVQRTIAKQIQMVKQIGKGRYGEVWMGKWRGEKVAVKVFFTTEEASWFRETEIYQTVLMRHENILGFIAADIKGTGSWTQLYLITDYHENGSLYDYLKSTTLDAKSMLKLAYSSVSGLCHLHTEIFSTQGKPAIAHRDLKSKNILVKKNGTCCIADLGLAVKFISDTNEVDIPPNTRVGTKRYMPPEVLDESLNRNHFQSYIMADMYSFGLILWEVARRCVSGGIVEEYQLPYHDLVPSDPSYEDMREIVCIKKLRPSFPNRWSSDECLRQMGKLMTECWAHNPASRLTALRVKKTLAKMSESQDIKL

[19] = target: Muscarinic acetylcholine receptor M3 (Homo sapiens) (UniProt P20309); conditions: Compound concentration 10.0 uM
[20] = target: Sodium-dependent dopamine transporter (Homo sapiens) (UniProt Q01959); conditions: Compound concentration 10.0 uM
[21] = target: T1, G protein-coupled receptor (Rattus norvegicus, UniProt Q9WU09); assay: cAMP increase in rat primary cultured striatal neurons
T1 sequence (Q9WU09 whole entry): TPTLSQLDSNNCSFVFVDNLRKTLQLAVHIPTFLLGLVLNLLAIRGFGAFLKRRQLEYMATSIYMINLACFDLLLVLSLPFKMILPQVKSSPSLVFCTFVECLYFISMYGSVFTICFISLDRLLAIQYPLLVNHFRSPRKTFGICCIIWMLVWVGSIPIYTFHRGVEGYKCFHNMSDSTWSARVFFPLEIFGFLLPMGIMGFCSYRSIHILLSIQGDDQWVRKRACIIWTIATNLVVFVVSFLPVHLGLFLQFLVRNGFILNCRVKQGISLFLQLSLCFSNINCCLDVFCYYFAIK

[22] = target: T1, G protein-coupled receptor; assay: CHO-based cAMP assay (rat)

Cyclin-dependent kinase 4 (Homo sapiens), sequence (P11802 whole entry): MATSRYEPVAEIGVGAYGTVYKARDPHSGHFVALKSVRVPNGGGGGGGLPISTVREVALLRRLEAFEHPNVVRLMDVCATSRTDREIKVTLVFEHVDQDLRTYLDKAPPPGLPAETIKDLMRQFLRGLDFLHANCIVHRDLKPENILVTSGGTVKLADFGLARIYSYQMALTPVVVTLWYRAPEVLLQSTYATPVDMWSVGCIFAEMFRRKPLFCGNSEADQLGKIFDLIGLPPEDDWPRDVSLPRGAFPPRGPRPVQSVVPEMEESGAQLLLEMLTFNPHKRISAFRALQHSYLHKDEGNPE
Phosphatidylinositol 4,5-bisphosphate 3-kinase catalytic subunit alpha isoform (Homo sapiens), P42336 [H1047Y], sequence (P42336 whole entry H1047Y, canonical isoform): as the sequence (P42336 whole entry Q546K, canonical isoform) above, with K546Q, H1047Y counted along it

Compound | residual activity [1] [%] | residual activity [2] [%] | residual activity [3] [%] | residual activity [4] [%] | residual activity [5] [%] | residual activity [6] [%] | residual activity [7] [%] | residual activity [8] [%] | residual activity [9] [%] | residual activity [10] [%] | residual activity [11] [%] | residual activity [12] [%] | residual activity [13] [%] | residual activity [15] [%] | residual activity [16] [%] | residual activity [17] [%] | residual activity [18] [%] | also measured
Cc1nc(Cc2cccc(C(F)(F)F)c2)sc1-c1ccc(C(N)=O)nc1 [TP-024n] | 100 | 100 | 100 | 100 | 98 | 90 | 86 | 81 | 100 | 100 | 90 | 89 | 83 | 91 | 93 | 100 | 94 | EC50 [14]: > 1000 nM (not active)
Cc1cc(-n2nc(Cc3cc(F)cc(C(F)(F)F)c3)nc2C)ccc1C(N)=O [TP-024] | 78 | 100 | 100 | 100 | 100 | 94 | 76 | 100 | 93 | 100 | 100 | 100 | 77 | 100 | 95 | 100 | 100 | inhibition [19]: 1.72%; inhibition [20]: 7.33%; EC50 [21]: 151 nM (active); EC50 [22]: 134 nM (active)
